Test results reported in patent US20110059910A1, “Novel aromatic fluoroglycoside derivatives, pharmaceuticals comprising said compounds and the use thereof” (SANOFI-AVENTIS, priority 2008, published 2011).

What follows are compounds tested against T1, human sodium-dependent glucose transporter 2 (SGLT2, SLC5A2) (Homo sapiens, UniProt P31639) (assay: Inhibition of the transport activity of human SGLT2 in vitro (α-MDG uptake in CHO-TRex-hSGLT2 cells)). Conditions: 50 μM α-MDG, 120 min at 37° C.
T1 construct: Bases 21 to 2039 correspond to the complete coding region of human SGLT2; expressed in transfected cells
T1 sequence (P31639 1-672): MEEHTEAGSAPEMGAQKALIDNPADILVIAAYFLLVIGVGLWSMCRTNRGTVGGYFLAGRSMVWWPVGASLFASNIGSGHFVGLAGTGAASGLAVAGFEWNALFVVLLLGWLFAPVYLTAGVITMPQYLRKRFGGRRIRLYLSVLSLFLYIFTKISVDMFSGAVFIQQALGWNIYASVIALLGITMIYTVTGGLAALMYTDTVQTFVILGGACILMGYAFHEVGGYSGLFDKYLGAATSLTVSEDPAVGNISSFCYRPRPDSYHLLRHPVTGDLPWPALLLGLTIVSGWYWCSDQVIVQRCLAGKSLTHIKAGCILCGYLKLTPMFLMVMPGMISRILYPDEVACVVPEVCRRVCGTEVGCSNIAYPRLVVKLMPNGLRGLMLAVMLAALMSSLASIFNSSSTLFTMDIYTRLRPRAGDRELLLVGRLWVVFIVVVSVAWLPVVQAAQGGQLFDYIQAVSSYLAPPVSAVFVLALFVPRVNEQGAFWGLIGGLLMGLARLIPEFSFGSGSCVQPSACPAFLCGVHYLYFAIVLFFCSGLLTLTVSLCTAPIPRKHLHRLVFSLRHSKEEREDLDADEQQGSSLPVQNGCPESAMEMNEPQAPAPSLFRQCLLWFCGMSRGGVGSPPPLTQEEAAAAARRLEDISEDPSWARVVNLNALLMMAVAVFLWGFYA
Format: cell-based
Text: Inhibition of the Transport Activity of the Human Sodium-Dependent Glucose Transporter 2 (SGLT2, SLC5A2) In Vitro
1. Cloning of an Expression Vector for Human SGLT2
The cDNA for human SGLT2 was introduced into the pcDNA4/TO vector (Invitrogen) by means of standard methods of molecular biology as described in Sambrook et al. (Molecular Cloning, A Laboratory Manual, Second Edition). […] Bases 21 to 2039 correspond to the complete coding region of human SGLT2.
2. Production of a Recombinant Cell Line with Inducible Expression of Human SGLT2
The expression vector for human SGLT2 was introduced into CHO-TREx cells (Invitrogen) by means of FuGene6 lipofection (Roche). To select single cell clones, 600 μg/ml of Zeocin (Invitrogen) was added to the cell culture medium (nutrient mixture F-12 (Ham), (Invitrogen) supplemented with 10% fetal calf serum (FBS Gold, PAA), 10 μg/ml Blasticidin S(CN Biosciences), 100 units/ml penicillin, 100 units/ml streptomycin). The functionality of the single cell clones resulting from the selection was tested via their uptake activity for radiolabeled methyl-α-D-glucopyranoside. That cell clone with the highest uptake activity for methyl-α-D-glucopyranoside, referred to hereinafter as CHO-TRex-hSGLT2, was selected for the further experiments and cultured further in the presence of 600 μg/ml Zeocin.
3. Measurement of the Inhibiting Action of Test Substances on the Uptake of methyl-α-D-glucopyranoside (α-MDG)
CHO-TRex-hSGLT2 cells were seeded in cell culture medium in a concentration of 50 000 cells per well in Cytostar-T scintillating 96-well plates (Amersham Biosciences) and cultivated for 24 h. The expression of the recombinant human SGLT2 was induced by adding 1 μg/ml tetrazykline for a further 24 h. For α-MDG uptake experiments, the cells were washed with PBS and then starved at 37° C. in starvation medium (PBS supplemented with 10% fetal calf serum) for 1 hour. After a further washing step with transport assay buffer (140 mM sodium chloride, 2 mm potassium chloride, 1 mm magnesium chloride, 1 mm calcium chloride, 10 mm HEPES/Tris, pH 7.5), the cells were incubated at room temperature either in the absence or presence of test substances of different concentration for 15 min. The test substances were diluted correspondingly in transport assay buffer proceeding from a 10 mm stock solution in dimethyl sulfoxide (40 μl/well). The assay was subsequently started by adding 10 μl/well of a mixture of radiolabeled methyl-α-D-[U-^14C]glucopyranoside (Amersham) and unlabeled methyl-α-D-glucopyranoside (Acros). The final concentration of methyl-α-D-glucopyranoside in the assay was 50 μM. After an incubation time of 120 min at 37° C., the reaction was stopped by adding 50 μl/well of 10 mM methyl-α-D-glucopyranoside in transport assay buffer (4° C.), and the radioactivity taken up into the cells was determined in a MicroBeta Scintillation Microplate Reader (Wallac).
The half-maximum inhibiting action of the test substances (IC50 value) was determined as follows: • 1. Determination of the value for 0% inhibition. This is the measurement in the absence of substance, measured in sodium-containing transport assay buffer. • 2. Determination of the value for 100% inhibition. This is the measurement in the absence of substance, measured in sodium-free transport assay buffer (140 mM choline chloride, 2 mM potassium chloride, 1 mM magnesium chloride, 1 mM calcium chloride, 10 mM HEPES/Tris, pH7.5). • 3. Calculation of the percentage inhibition values of those measurements which were carried out in the presence of different concentrations of test substance. From this, it was then possible to determine that concentration of the test substance which reduces the uptake of the methyl-α-D-glucopyranoside by 50% (IC50 value).

SMILES	IC50
CCc1ccc(Cc2cccc(C3OC(CO)C(F)C(O)C3O)c2)cc1 (centres unmarked) [Example 4]	153 nM
CCOC(=O)OCC1OC(c2ccc(OC)c(Cc3ccc(OC)cc3)c2)C(O)C(O)C1(F)F (centres unmarked) [Example 14]	1600 nM
CCOC(=O)OC1C(O)C(c2ccc(Cl)c(Cc3ccc(OCC)cc3)c2)OC(CO)C1(F)F (centres unmarked) [Example 19]	165 nM
CCOC(=O)OCC1OC(c2ccc(Cl)c(Cc3ccc(OC)cc3)c2)C(O)C(O)C1F (centres unmarked) [Example 20]	1060 nM
OCC1OC(c2ccc(Cl)c(Cc3ccc(OCC4CC4)cc3)c2)C(O)C(O)C1(F)F (centres unmarked) [Example 32]	46 nM
CCOC(=O)OC[C@H]1O[C@@H](c2ccc(Cl)c(Cc3ccc(Cl)cc3)c2)[C@H](O)[C@@H](O)C1(F)F [Example 45]	3000 nM
CCc1ccc(Cc2cc(C3OC(CO)C(F)C(O)C3O)ccc2C(F)(F)F)cc1 (centres unmarked) [Example 52]	107 nM
CCc1ccc(Cc2cc(C3OC(CO)C(F)(F)C(O)C3O)ccc2C(F)(F)F)cc1 (centres unmarked) [Example 54]	257 nM
